From ChEMBL document CHEMBL1201862, “PubChem BioAssay data set” (2004) come the findings set out here.

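Grown in 96-well plates, cells were treated for 48 hours with each compound at five concentrations. Insufficient inhibition: endpoint recorded as highest concentration tested. GI50 marks 50% less growth.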 Activity calls are given as the source filed them. Rule as the data show it: active = GI50 up to about 1.1 µM and inactive = higher. Non-standard residues stand in square brackets, D forms with d. Square brackets hold non-standard residues; d marks the D form. Residues, ends and D or L forms follow the SMILES beside them. Peptide text beside a SMILES is read from it. * marks the point of attachment. ξ: configuration not given here. *: point of attachment. ξF = NC(Cc1ccccc1)C(=O)O; Ac5c = NC1(C(=O)O)CCCC1; Cbz = O=C(OCc1ccccc1)*; Boc = CC(C)(C)OC(=O)*; Aib = CC(C)(N)C(=O)O; tBu = CC(C)(C)*

Among the test systems are Hs-578T; UO-31; SF-539; Malme-3M; M14; PC-3; U-251; HT-29; RPMI-8226; SN12C; KM12; 786-0; HL-60; MDA-MB-231; OVCAR-5; NCI/ADR-RES; CCRF-CEM; SK-MEL-5; NCI-H23; A498.
What all share (assay): growth of human tumour cells (NCI), 48 h

Take `CCOC(=O)c1c2c(n(-c3ccc(OC)cc3)c1C)C(=O)C(=O)c1ccccc1-2`: the GI50 in the assay with Hs-578T was 2.18 µM (inactive); in the assay on UO-31, 2.12 µM (inactive); in the assay on SF-539, 0.711 µM (active); with Malme-3M it was 0.241 µM (active); in the assay on M14, 1.59 µM (inactive); with PC-3, 2.18 µM (inactive). Also, the GI50 is 1.22 µM (inactive) in the assay with U-251; 2.34 µM (inactive) in the assay with HT-29; 0.647 µM (active) with RPMI-8226; 1.58 µM (inactive) with SN12C; 1.82 µM (inactive) in the assay with KM12; 1.87 µM (inactive) in the assay with 786-0. The GI50 was 0.0261 µM (active) in the assay on HL-60; 1.29 µM (inactive) in the assay on MDA-MB-231; 1.88 µM (inactive) in the assay on OVCAR-5; 0.869 µM (active) in the assay with NCI/ADR-RES; 1.27 µM (inactive) in the assay with CCRF-CEM; 1.06 µM (active) in the assay with SK-MEL-5. Besides, in the assay with NCI-H23, the GI50 is 0.873 µM (active).
As for `CN(C)CCCn1c(Cc2ccccc2)nc2cc(C(F)(F)F)ccc21`, the GI50 in the assay on Hs-578T was 45.6 µM (inactive); in the assay with UO-31 it was 1.91 µM (inactive); in the assay on Malme-3M it was 17.7 µM (inactive); with M14 it was 15.5 µM (inactive); with PC-3, 29 µM (inactive); in the assay on U-251, 20 µM (inactive). In addition, the GI50 in the assay with A498 was 15 µM (inactive); in the assay with HT-29 it was 20.7 µM (inactive); with SN12C, 41.6 µM (inactive); with KM12 it was 15.7 µM (inactive); with 786-0, 19.1 µM (inactive); with MDA-MB-231, 22.4 µM (inactive). Moreover, the GI50 with OVCAR-5 is 78.7 µM (inactive); in the assay on NCI/ADR-RES it was 65.6 µM (inactive); in the assay on CCRF-CEM, 19.4 µM (inactive); with SK-MEL-5 it was 17.3 µM (inactive); in the assay on NCI-H23 it was 29.5 µM (inactive).
As to `COC(=O)CCc1ccc2c(c1)CCC2`, the GI50 with Hs-578T, in the assay on UO-31, in the assay with SF-539, with Malme-3M, in the assay on M14 and in the assay on PC-3 was > 100 µM (inactive) each time. The GI50 with U-251, in the assay on HT-29, in the assay on RPMI-8226, with SN12C, in the assay on KM12 and in the assay with 786-0 was > 100 µM (inactive) each time. For the same compound, the GI50 in the assay on HL-60, in the assay on MDA-MB-231, in the assay on OVCAR-5, with NCI/ADR-RES, in the assay with CCRF-CEM and with SK-MEL-5 was > 100 µM (inactive) each time. In the assay on NCI-H23, the GI50 is > 100 µM (inactive).
Take `Cc1cccc2c1CC(Cc1ccccc1C(=O)O)C2=O` (stereo unspecified): the GI50 in the assay on Hs-578T, in the assay on UO-31, in the assay on SF-539, in the assay with Malme-3M, in the assay on M14 and in the assay on PC-3 was > 100 µM (inactive) throughout. In addition, the GI50 in the assay on U-251, in the assay on HT-29, in the assay with RPMI-8226, with SN12C, in the assay on KM12 and in the assay with 786-0 was > 100 µM (inactive) each time. The GI50 with HL-60, in the assay on MDA-MB-231, with OVCAR-5, with NCI/ADR-RES, in the assay on CCRF-CEM and with SK-MEL-5 was > 100 µM (inactive) in each case. In addition, the GI50 with NCI-H23 was > 100 µM (inactive).
For the compound `O=c1cc(-c2ccccc2)[nH]c2ccc(S)cc12`, the GI50 is 26.2 µM (inactive) with Hs-578T; 72.3 µM (inactive) in the assay with SF-539; 27.5 µM (inactive) in the assay on Malme-3M; 25.9 µM (inactive) in the assay with M14; 20.6 µM (inactive) in the assay with PC-3; 26.1 µM (inactive) in the assay with U-251. Further, the GI50 was 29 µM (inactive) in the assay on HT-29; 44.2 µM (inactive) in the assay on RPMI-8226; 18.3 µM (inactive) in the assay on SN12C; 28.8 µM (inactive) in the assay on KM12; 79.8 µM (inactive) with 786-0; 35.7 µM (inactive) in the assay on HL-60. Besides, the GI50 in the assay on MDA-MB-231 was 65.2 µM (inactive); with OVCAR-5, 86.3 µM (inactive); in the assay with NCI/ADR-RES, 24.9 µM (inactive); in the assay on CCRF-CEM, 22.1 µM (inactive); in the assay with SK-MEL-5, 15.5 µM (inactive); in the assay on NCI-H23 it was 33.9 µM (inactive).
As to `O=C1CSC(c2ccc(Cl)cc2)N1c1ccc(-n2c(-c3ccccc3)nc3ccccc3c2=O)cc1` (stereo unspecified), the GI50 is 52.7 µM (inactive) in the assay on Hs-578T; 5.48 µM (inactive) in the assay with UO-31; > 100 µM (inactive) with SF-539; 48.9 µM (inactive) in the assay on Malme-3M; > 100 µM (inactive) in the assay on M14; 53.8 µM (inactive) in the assay with PC-3. The GI50 in the assay with U-251 was 88.5 µM (inactive); in the assay on A498 it was 83.4 µM (inactive); in the assay on HT-29, 84.7 µM (inactive); in the assay on RPMI-8226, > 100 µM (inactive); in the assay with SN12C, > 100 µM (inactive); with KM12, 24.4 µM (inactive). Besides, the GI50 is 87.1 µM (inactive) with 786-0; 33.2 µM (inactive) in the assay with MDA-MB-231; > 100 µM (inactive) in the assay with OVCAR-5; 23.8 µM (inactive) with NCI/ADR-RES; 45.7 µM (inactive) in the assay on CCRF-CEM; 54.7 µM (inactive) with SK-MEL-5. Moreover, in the assay with NCI-H23, the GI50 was > 100 µM (inactive).
With `N#CC(C#N)=c1c2ccccc2c(=C(C#N)C#N)c2ccccc12`, the GI50 in the assay on Hs-578T is 20.8 µM (inactive); in the assay with M14, 17.4 µM (inactive); in the assay with PC-3, 16.1 µM (inactive); in the assay with U-251, 19.4 µM (inactive); in the assay on A498, 23.8 µM (inactive); in the assay on HT-29 it was 18.6 µM (inactive). Also, the GI50 with RPMI-8226 is 23.6 µM (inactive); in the assay on SN12C, 16.6 µM (inactive); in the assay on KM12, 18.1 µM (inactive); in the assay on 786-0, 14.9 µM (inactive); in the assay on HL-60, 19.8 µM (inactive); in the assay with MDA-MB-231, 16.4 µM (inactive). Also, the GI50 in the assay on OVCAR-5 was 20.9 µM (inactive); in the assay on NCI/ADR-RES, 25.6 µM (inactive); in the assay on CCRF-CEM, 7.46 µM (inactive); in the assay on SK-MEL-5 it was 16.7 µM (inactive); in the assay on NCI-H23 it was 19.6 µM (inactive).
Turning to `O=C(Nc1ccc(Cl)cc1)[C-](C(=O)c1ccc(Br)cc1)[n+]1cccc(-c2ccc(Cl)cc2)n1`, the GI50 is 4.25 µM (inactive) in the assay with Hs-578T; 5.87 µM (inactive) with UO-31; 2.86 µM (inactive) in the assay on Malme-3M; 3.68 µM (inactive) in the assay on M14; 3.95 µM (inactive) with PC-3; 3.87 µM (inactive) in the assay on U-251. Besides, the GI50 in the assay with A498 was 9.71 µM (inactive); in the assay on RPMI-8226 it was 3.81 µM (inactive); in the assay with SN12C, 2.88 µM (inactive); in the assay with KM12 it was 3.1 µM (inactive); with 786-0, 2.56 µM (inactive); in the assay with MDA-MB-231, 31.2 µM (inactive). Moreover, the GI50 in the assay on OVCAR-5 is 4.24 µM (inactive); in the assay with NCI/ADR-RES it was 3.53 µM (inactive); with SK-MEL-5, 3.18 µM (inactive); in the assay on NCI-H23, 2.37 µM (inactive).
`CC(C)(NC(=O)OCc1ccccc1)C(=O)NC(Cc1ccccc1)C(=O)O` (stereo unspecified) (Cbz-[Aib]-[ξF]-OH): the GI50 in the assay with Hs-578T, in the assay on UO-31, in the assay on SF-539, in the assay on Malme-3M, in the assay with M14 and with PC-3 was > 100 µM (inactive) throughout. For the same compound, the GI50 in the assay on U-251, with A498, in the assay on HT-29, in the assay with RPMI-8226, in the assay on SN12C and in the assay with KM12 was > 100 µM (inactive) throughout. For the same compound, the GI50 with 786-0, in the assay with MDA-MB-231, in the assay on OVCAR-5, in the assay with NCI/ADR-RES, in the assay with CCRF-CEM and in the assay on SK-MEL-5 was > 100 µM (inactive) each time. In the assay with NCI-H23, the GI50 is > 100 µM (inactive).
With `CC(OC(C)(C)C)C(NC(=O)C(CCCCNC(=O)OC(C)(C)C)NC(=O)C(Cc1c[nH]c2ccccc12)NC(=O)C(N)Cc1ccccc1)C(=O)NC(Cc1ccccc1)C(=O)NC1(C(=O)O)CCCC1` (stereo unspecified) (H-FWK(Boc)T(tBu)F[Ac5c]-OH; configuration not given here), the GI50 in the assay with Hs-578T, in the assay on UO-31, in the assay with SF-539, with Malme-3M, in the assay with M14 and in the assay on PC-3 was > 100 µM (inactive) throughout. Moreover, the GI50 with U-251, in the assay on A498, in the assay on HT-29, in the assay on RPMI-8226, with SN12C and in the assay with KM12 was > 100 µM (inactive) each time. Moreover, the GI50 in the assay with 786-0, in the assay on MDA-MB-231, in the assay with OVCAR-5, in the assay on NCI/ADR-RES, in the assay on CCRF-CEM and with SK-MEL-5 was > 100 µM (inactive) in each case. Moreover, the GI50 with NCI-H23 was > 100 µM (inactive).
For `COc1ccc(/C=C/c2cc(OC)cc(=O)o2)cc1` [YANGONIN], the GI50 was 35.5 µM (inactive) with Hs-578T; > 100 µM (inactive) with UO-31; 10.2 µM (inactive) in the assay with SF-539; > 100 µM (inactive) in the assay with Malme-3M; 68.4 µM (inactive) with M14; > 100 µM (inactive) with PC-3. Besides, the GI50 in the assay on U-251 is 27.1 µM (inactive); in the assay on HT-29, > 100 µM (inactive); in the assay with RPMI-8226, > 100 µM (inactive); in the assay on SN12C, > 100 µM (inactive); with KM12, 57.4 µM (inactive); in the assay on 786-0, 36.1 µM (inactive). Besides, the GI50 in the assay with HL-60, in the assay on MDA-MB-231, with OVCAR-5, in the assay with NCI/ADR-RES, in the assay with CCRF-CEM and in the assay with SK-MEL-5 was > 100 µM (inactive) throughout. Also, in the assay with NCI-H23, the GI50 is 51.8 µM (inactive).
